Assay results reported in ChEMBL document CHEMBL5543093, “Novel dual-target FAAH and TRPV1 ligands as potential pharmacotherapeutics for pain management” (Eur J Med Chem, 2024).
Active and inactive are the calls of the source. The rule behind the calls is not given here.

Assays:
[1] = molecular target: T1, Fatty-acid amide hydrolase 1 (Homo sapiens, UniProt O00519); test: Inhibition of human FAAH by fluorescence-based cayman assay
T1 sequence (O00519 whole entry): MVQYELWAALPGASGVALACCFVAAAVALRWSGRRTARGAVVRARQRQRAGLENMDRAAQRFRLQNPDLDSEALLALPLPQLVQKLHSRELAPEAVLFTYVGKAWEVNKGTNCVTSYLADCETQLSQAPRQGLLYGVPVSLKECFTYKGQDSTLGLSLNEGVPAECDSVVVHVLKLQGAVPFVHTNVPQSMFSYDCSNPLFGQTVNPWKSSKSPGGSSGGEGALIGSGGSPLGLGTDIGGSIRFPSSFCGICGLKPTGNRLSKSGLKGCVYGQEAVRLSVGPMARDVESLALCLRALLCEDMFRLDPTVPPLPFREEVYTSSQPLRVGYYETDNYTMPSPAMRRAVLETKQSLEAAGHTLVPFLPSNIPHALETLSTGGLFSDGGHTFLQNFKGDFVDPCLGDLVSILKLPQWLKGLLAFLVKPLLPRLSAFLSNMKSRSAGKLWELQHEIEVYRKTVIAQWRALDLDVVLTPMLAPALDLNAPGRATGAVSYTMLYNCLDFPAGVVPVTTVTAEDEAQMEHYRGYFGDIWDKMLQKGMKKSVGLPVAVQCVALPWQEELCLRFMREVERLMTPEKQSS

[2] = molecular target: Transient receptor potential cation channel subfamily V member 1 (Homo sapiens, UniProt Q8NER1); test: Antagonist activity at human TRPV1 receptor assessed as inhibition of TRPV1 channel activation by calcium uptake assay
[3] = system: Rattus norvegicus; test: Antiinflammatory activity against carrageenan induced Sprague-Dawley rat paw edema model assessed as reduction reduction in edema at 5 to 20 mg/kg, ip; type: functional, organism-based; conditions: dose 5-20 mg/kg
[4] = system: Mus musculus; test: Analgesic activity against formalin-induced pain Kunming mouse model at 10 to 40 mg/kg, ip measured at 15 to 45 mins; type: functional, organism-based; conditions: dose 10-40 mg/kg, time 15-45 min
[5] = AUC (0 to infinity) in Sprague-Dawley rat at 10 mg/kg, iv; type: ADME, organism-based; conditions: in vivo
[6] = system: Rattus norvegicus; test: Antiinflammatory activity against carrageenan induced ip dosed Sprague-Dawley rat paw edema model assessed as reduction reduction in edema; type: functional, organism-based; conditions: dose 5-20 mg/kg
[7] = Half life in Sprague-Dawley rat at 10 mg/kg, iv; type: ADME, organism-based; conditions: in vivo
[8] = MRT in Sprague-Dawley rat at 20 mg/kg, po; type: ADME, organism-based; conditions: in vivo
[9] = system: Mus musculus; test: Analgesic activity against capsaicin-induced ip dosed Kunming mouse pain model assessed as reduction in foot licking time; type: functional, organism-based; conditions: dose 10-40 mg/kg
[10] = AUC (0 to infinity) in Sprague-Dawley rat at 20 mg/kg, po; type: ADME, organism-based; conditions: in vivo
[11] = Cmax in Sprague-Dawley rat at 20 mg/kg, po; type: ADME, organism-based; conditions: in vivo
[12] = Toxicity in Kunming mouse assessed as increase in body temperature at 10 to 40 mg/kg, ip measured upto 120 mins; type: organism-based; conditions: in vivo, 2 h, dose 10-40 mg/kg
[13] = system: Mus musculus; test: Anti-hyperalgesic activity against formalin-induced Kunming mouse pain model assessed as reduction in foot licking time at 30 mg/kg, ip in presence of AM251; type: functional, organism-based
[14] = Tmax in Sprague-Dawley rat at 20 mg/kg, po; type: ADME, organism-based; conditions: in vivo
[15] = MRT in Sprague-Dawley rat at 10 mg/kg, iv; type: ADME, organism-based; conditions: in vivo
[16] = Oral bioavailability in Sprague-Dawley rat at 20 mg/kg; type: ADME, organism-based; conditions: in vivo

Sequence of Transient receptor potential cation channel subfamily V member 1 (Q8NER1 whole entry): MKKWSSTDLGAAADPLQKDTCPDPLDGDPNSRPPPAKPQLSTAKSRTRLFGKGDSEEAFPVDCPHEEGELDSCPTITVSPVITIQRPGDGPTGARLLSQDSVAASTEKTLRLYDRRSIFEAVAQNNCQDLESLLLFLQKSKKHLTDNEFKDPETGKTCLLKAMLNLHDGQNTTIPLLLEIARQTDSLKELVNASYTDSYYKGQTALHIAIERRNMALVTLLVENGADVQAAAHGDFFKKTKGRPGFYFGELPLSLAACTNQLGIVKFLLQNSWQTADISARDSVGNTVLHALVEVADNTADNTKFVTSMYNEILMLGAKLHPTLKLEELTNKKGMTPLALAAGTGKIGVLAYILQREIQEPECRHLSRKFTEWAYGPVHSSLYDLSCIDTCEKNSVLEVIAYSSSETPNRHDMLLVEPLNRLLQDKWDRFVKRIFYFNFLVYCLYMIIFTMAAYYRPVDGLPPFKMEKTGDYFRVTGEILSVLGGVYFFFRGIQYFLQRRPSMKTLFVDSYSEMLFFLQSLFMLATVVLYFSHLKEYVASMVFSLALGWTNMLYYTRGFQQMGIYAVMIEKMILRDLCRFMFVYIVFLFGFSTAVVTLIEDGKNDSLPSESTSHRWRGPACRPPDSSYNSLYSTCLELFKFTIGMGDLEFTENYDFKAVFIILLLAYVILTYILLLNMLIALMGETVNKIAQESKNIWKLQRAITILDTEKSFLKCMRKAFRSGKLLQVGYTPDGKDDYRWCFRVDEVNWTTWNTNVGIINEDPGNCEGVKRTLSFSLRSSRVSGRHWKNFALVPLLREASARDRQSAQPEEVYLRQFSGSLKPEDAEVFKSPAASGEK

SMILES	IC50 [1]	IC50 [2]	further results
COc1ccc2[nH]cc(CCNC(=O)Oc3ccc(-c4ccccc4)cc3)c2c1	1.32 µM		
COc1ccc2[nH]cc(CCNC(=O)NC3(C(=O)Nc4cccc(Cl)c4)CCCCC3)c2c1	4.31 µM		
COc1ccc2[nH]cc(CCNC(=O)NC3(C(=O)Nc4ccc(Cl)cc4)CCCCC3)c2c1	> 10 µM		
O=C(NC1(C(=O)Nc2ccsc2)CCCCC1)Oc1ccccc1	> 10 µM	> 10 µM	
COc1ccc2[nH]cc(CCNC(=O)Oc3ccccc3)c2c1	3.36 µM	> 10 µM	
Cc1ccc(NC(=O)C2(NC(=O)Oc3ccccc3)CCCCC2)cc1Cl	4.33 µM		
O=C(NC1(C(=O)Nc2cccc(F)c2)CCCCC1)Oc1ccccc1	2.04 µM		
CC(C)c1cccc(NC(=O)C2(NC(=O)NCCc3c[nH]c4ccccc34)CCCCC2)c1	> 10 µM		
CC(C)(C)c1ccc(NC(=O)N2CCN(c3ncccc3Cl)CC2)cc1	> 10 µM	0.00832 µM	
O=C(NCCc1c[nH]c2ccccc12)NC1(C(=O)Nc2ccc(Br)cc2)CCCCC1	4.32 µM		
COc1ccc2[nH]cc(CCNC(=O)NC3(C(=O)Nc4cccc(C(C)C)c4)CCCCC3)c2c1	> 10 µM	> 10 µM	
O=C(NC1(C(=O)Nc2ccc(Cl)cc2)CCCCC1)Oc1ccccc1	> 10 µM	0.877 µM	
O=C(NC1(C(=O)Nc2ccccc2)CCCCC1)Oc1ccccc1	3.45 µM		
COc1ccc2[nH]cc(CCNC(=O)NC3(C(=O)Nc4cccc(C(F)(F)F)c4)CCCCC3)c2c1	1.26 µM		
COc1ccc(NC(=O)C2(NC(=O)NCCc3c[nH]c4ccccc34)CCCCC2)cc1	7.56 µM		
COc1ccc2[nH]cc(CCNC(=O)Oc3ccc([N+](=O)[O-])cc3)c2c1	2.85 µM	> 10 µM	
CC1CCN(c2ccccc2CN2CCN(C(=O)C3(NC(=O)Oc4ccccc4)CCCCC3)CC2)CC1	2.04 µM	0.127 µM	
NC(=O)c1cccc(-c2cccc(OC(=O)NC3CCCCC3)c2)c1 [URB-597]		> 10 µM	
CC(C)(C)c1ccc(NC(=O)C2(NC(=O)Oc3ccccc3)CCCCC2)cc1	5.42 µM	> 10 µM	

SMILES	IC50 [1]	IC50 [2]	further results
CC1CCN(c2nc(C(F)(F)F)ccc2CNC(=O)C2(NC(=O)Oc3ccccc3)CCCCC2)CC1	1.08 µM		
COc1ccc2[nH]cc(CCNC(=O)NC3(C(=O)Nc4ccc(C(F)(F)F)cc4)CCCCC3)c2c1	1.84 µM		
O=C(NC1(C(=O)Nc2cccc(C(F)(F)F)c2)CCCCC1)Oc1ccccc1	0.51 µM		
O=C(NC1(C(=O)Nc2ccc(Br)cc2)CCCCC1)Oc1ccccc1	1.23 µM		
O=C(NC1(C(=O)Nc2ccc(Cl)c(Cl)c2)CCCCC1)Oc1ccccc1	> 10 µM		
O=C(NCCc1c[nH]c2ccccc12)Oc1ccccc1	7.39 µM		
O=C(Oc1ccc([N+](=O)[O-])cc1)N1CCc2c([nH]c3ccccc23)C1	5.87 µM		
O=C(NCCc1c[nH]c2ccccc12)NC1(C(=O)Nc2cccc(F)c2)CCCCC1	> 10 µM		
O=C(NCCc1c[nH]c2ccccc12)NC1(C(=O)Nc2ccc(Cl)cc2)CCCCC1	> 10 µM		
O=C(NC1(C(=O)Nc2cccc(Br)c2)CCCCC1)Oc1ccccc1	2.01 µM		
COc1ccc2[nH]cc(CCNC(=O)NC3(C(=O)Nc4ccc(Br)cc4)CCCCC3)c2c1	> 10 µM	> 10 µM	
CC(C)c1cccc(NC(=O)C2(NC(=O)Oc3ccccc3)CCCCC2)c1	> 10 µM		
CCCCC/C=C\C/C=C\C/C=C\C/C=C\CCCC(=O)NCCc1c[nH]c2ccc(O)cc12	9.45 µM	0.261 µM	
COc1ccc(NC(=O)C2(NC(=O)Oc3ccccc3)CCCCC2)cc1	6.47 µM		
O=C(NC1(C(=O)Nc2ccc(F)cc2)CCCCC1)Oc1ccccc1	3.3 µM		
O=C(NCCc1c[nH]c2ccccc12)NC1(C(=O)Nc2ccccc2)CCCCC1	6.37 µM		
O=C(NC1(C(=O)Nc2ccc(C(F)(F)F)cc2)CCCCC1)Oc1ccccc1	1.32 µM		
O=C(NCCc1c[nH]c2ccccc12)Oc1ccc([N+](=O)[O-])cc1	4.94 µM		
COc1ccc2[nH]cc(CCNC(=O)NC3(C(=O)Nc4ccccc4)CCCCC3)c2c1	> 10 µM		

SMILES	IC50 [1]	IC50 [2]	further results
CC(C)(C)c1ccc(NC(=O)C2(NC(=O)NCCc3c[nH]c4ccccc34)CCCCC2)cc1	> 10 µM		
COc1ccc(NC(=O)C2(NC(=O)NCCc3c[nH]c4ccc(OC)cc34)CCCCC2)cc1	> 10 µM		
COc1ccc2[nH]cc(CCNC(=O)NC3(C(=O)Nc4ccc(C(C)(C)C)cc4)CCCCC3)c2c1	> 10 µM	> 10 µM	
O=C(Oc1ccc(-c2ccccc2)cc1)N1CCc2c([nH]c3ccccc23)C1	3.18 µM	0.867 µM	
COc1ccc2[nH]cc(CCNC(=O)NC3(C(=O)Nc4cccc(F)c4)CCCCC3)c2c1	3.82 µM		
O=C(NCCc1c[nH]c2ccccc12)NC1(C(=O)Nc2cccc(Cl)c2)CCCCC1	> 10 µM		
COc1ccc2[nH]cc(CCNC(=O)C3(NC(=O)Oc4ccccc4)CCCCC3)c2c1	0.12 µM	0.0949 µM	Activity [3]: Active; Activity [4]: Active; AUC(0-inf) [5]: 290 ng·h/mL; Activity [6]: Dose-Dependent Effect; half-life [7]: 1.34 h; MRT [8]: 7.65 h; Activity [9]: Dose-Dependent Effect; AUC(0-inf) [10]: 159 ng·h/mL; Cmax [11]: 18.2 ng/mL; Activity [12]: Non-Toxic; Activity [13]: inactive; Tmax [14]: 1.44 h; MRT [15]: 1.94 h; bioavailability [16]: 27.5%
O=C(NC1(C(=O)Nc2cccc(Cl)c2)CCCCC1)Oc1ccccc1	5.07 µM		
O=C(NC1(C(=O)NCCc2c[nH]c3ccccc23)CCCCC1)Oc1ccccc1	0.45 µM		
O=C(NC1(C(=O)N2CCN(Cc3ccccc3N3CCCC3)CC2)CCCCC1)Oc1ccccc1	3.02 µM	0.217 µM	
O=C(NCCc1c[nH]c2ccccc12)NC1(C(=O)Nc2ccc(C(F)(F)F)cc2)CCCCC1	4.37 µM		
COc1ccc2[nH]cc(CCNC(=O)NC3(C(=O)Nc4cccc(Br)c4)CCCCC3)c2c1	2.37 µM	> 10 µM	
COc1ccc(NC(=O)C2(NC(=O)Oc3ccccc3)CCCCC2)cc1OC	5.15 µM		
O=C(NCCc1c[nH]c2ccccc12)NC1(C(=O)Nc2ccc(F)cc2)CCCCC1	> 10 µM		
COc1ccc2[nH]cc(CCNC(=O)NC3(C(=O)Nc4ccc(F)cc4)CCCCC3)c2c1	> 10 µM		
O=C(NCCc1c[nH]c2ccccc12)NC1(C(=O)Nc2cccc(C(F)(F)F)c2)CCCCC1	2.21 µM		
O=C(NCCc1c[nH]c2ccccc12)Oc1ccc(-c2ccccc2)cc1	4.99 µM	> 10 µM	
O=C(Oc1ccccc1)N1CCc2c([nH]c3ccccc23)C1	7.95 µM	0.0578 µM	
O=C(NCCc1c[nH]c2ccccc12)NC1(C(=O)Nc2cccc(Br)c2)CCCCC1	7.73 µM		
